“Also recorded” adds a separate entry of the source. Read-outs that look alike come from different tables or passages of the source. Where a SMILES comes first, the peptide text is derived from it. Bridges are numbered along the chain shown (N, C = ends). [ ]: non-standard residue; d: D form. d2Nal = N[C@H](Cc1ccc2ccccc2c1)C(=O)O; Nle = CCCC[C@H](N)C(=O)O; Ahx = NCCCCCC(=O)O; βAla = NCCC(=O)O
Legend:
[1] = molecular target: T1, delta opioid receptor (DOR) (Rattus norvegicus, UniProt P33533); assay: Competitive radioligand binding, [3H][Ile5,6]DELT II, rat brain homogenate; conditions: three determinations in duplicate, read-out: Affinity DOR IC50 ± SD
T1 construct: The determinations for opioid receptors were performed in rat brain homogenates; from tissue; host or cells: rat brain homogenate (membrane fraction)
Method: (§1) The determinations for opioid receptors were performed in rat brain homogenates by competitive displacement using selective radioligands, namely [^3H]DAMGO (a radioligand specific for MOR) and [^3H][Ile^5,6]DELT II (a radioligand specific for DOR). The measurement for melanocortin receptor MC4 was performed with the use of HEK293 MC4R cells and [^125I]-NDP-α-MSH radioligand.
(§2) The binding affinity of peptidomimetics 1–9 and reference compoundsTyr-D-Ala-Gly-Phe-NH2 for MOR and DOR was determined in competitive radioligand binding assays according to the method previously described. The specific radioligands were [^3H]DAMGO (DAMGO (a specific MOR ligand) and [^3H][Ile^5,6]DELT II]) (a specific DOR ligand). Membrane fractions of rat brain homogenate were incubated at 25 °C for 60 min in the presence of radioligands (0.5 nM) specific for each receptor and the increasing concentrations of the tested compounds. For measuring non-specific binding, 10 μM naloxone was used as the competitor for opioid receptors. The reactions were carried out in assay buffer containing Tris-HCl (pH 7.4) with an addition of bovine serum albumin (BSA) and protease inhibitors (bacitracin, bestatin, captopril). After the incubation, the binding reactions were terminated by rapid filtration with M-24 Cell Harvester (Brandel/USA) through GF/B Whatman glass fiber strips (pre-soaked with 0.5% PEI in order to minimize non-specific binding). Radioactivity retained on the filters was measured in MicroBeta LS, Trilux scintillation counter (PerkinElmer, USA). The experiments were repeated at least three times in duplicate. The IC50 value for each compound was determined using GraphPad Prism.

[2] = Experimental lipophilicity (P, log P); assay type: physicochemical
Text: We also studied experimentally the lipophilicity of the compounds 1–4. The obtained logP values vary only moderately (in the range −2.30 to −2.92, Table S2) and cannot account for the large differences in the antinociceptive activity. It seems then that the lipophilicity is not a factor responsible for the in vivo activity differences.

mu opioid receptor (MOR) = molecular target: T2, mu opioid receptor (MOR) (Rattus norvegicus, UniProt P33535); assay: Competitive radioligand binding, [3H]DAMGO, rat brain homogenate; conditions: for IC50: [3H]DAMGO, rat brain homogenate, three determinations in duplicate, read-out: Affinity MOR IC50 ± SD; for Selectivity MOR/DOR: calculated as ratio of IC50 values
T2 construct: The determinations for opioid receptors were performed in rat brain homogenates; from tissue; host or cells: rat brain homogenate (membrane fraction)
Method: as §1, §2

[3] = molecular target: melanocortin-4 receptor (MC4R) (Homo sapiens, UniProt P32245); assay: Radioligand competitive binding, [125I]-NDP-α-MSH, HEK293 MC4R cells; conditions: for IC50: [125I]-NDP-α-MSH, HEK293 MC4R cells, average of two assays in duplicates, read-out: Affinity MC4R IC50 ± SD; for Selectivity MC4R/DOR: calculated as ratio of IC50 values
Method: as §1
HEK293 MC4R were cultured in Earle’s Minimum Essential Medium (EMEM) supplemented with 10% heat inactivated fetal bovine serum (FBS). Cultures were grown under the humidified atmosphere of 5% CO2 in the air at 37 °C, up to 80% settlement of the bottle surface.
HEK293 MC4R cells were seeded around 10^5 cell/well in a 24-well plates two days before the experiment. Just before experiment, cells were washed twice with 0.5 mL of binding buffer (EMEM supplemented with 25 mM HEPES buffer, 0.2% bovine serum albumin, 1 mM 1,10-phenanthroline, 0.5 mg/L leupeptin and 200 mg/L bacitracin). […] The competition between ligands was ended by gentle withdrawal of medium solution, followed by cell washing with 2 × 0.5 mL of cold binding buffer, while the attached cells were lysed using 2 × 0.5 mL of 1 M NaOH. The radioactivity of collected solutions were measured on WIZARD^2 2480 Automatic Gamma Counter (PerkinElmer, Boston, MA, USA) in measurements with decay correlation protocol. All binding parameters were determined using GraphPad Prism Software (GraphPad Software Inc., San Diego, CA, USA). The competition assay determination was based on the normalized dose response in function of logarithm of inhibitor concentration (with variable slope) equation. All the EC50 values were calculated as an average of two separate competition assays performed in duplicates.

[4] = system: mice subjected to CCI (neuropathic pain); assay: Cold plate test in CCI-exposed mice (neuropathic pain, hyperalgesia); assay type: in vivo; conditions: 7–14 days after CCI, i.t. administration, 95% confidence limits
Method: (§3) The antinociceptive properties of the peptidomimetics 1–9 were assessed in two types of pain models. The first one included naive mice (acute pain), and the second one included mice exposed to chronic constriction injury (CCI, neuropathic pain model). In the latter of the models, two types of stimuli (mechanical pressure and low temperature) were considered. […] In naive mice, the tail-flick test was used to evaluate the analgesic effect (acute pain model). In CCI-exposed mice, hypersensitivity to mechanical and thermal stimuli was measured by von Frey and cold-plate tests, respectively.
(§4) The surgical procedure was performed according to Bennett and Xie. Under isoflurane anesthesia, an incision was made below the mouse’s right hipbone, and the sciatic nerve was exposed. Three ligatures with 4/0 silk thread were made around the nerve distal to the sciatic notch with 1 mm spacing, until a brief twitch in the respective hind limb was observed. After 7 days of recovery, mice were tested to assess the development of neuropathic pain behavior. […] Main experiments were conducted on days 7–14 after CCI surgical procedure.
Sensitivity to noxious thermal stimuli was assessed with usage of Cold/Hot Plate Analgesia Meter, (Ugo Basile, Comerio, Italy). The temperature of the plate was kept at 2 °C, and the cut-off latency was 30 s. The mice were placed on the cold plate, and the time until the hind paw was lifted was recorded, which was considered as a reaction to noxious cold stimulus.
(§5) The behavioral data are presented as the percentage of the maximal possible antinociceptive effect (% MPE ± SEM), which was calculated according to the following equation: % MPE = [(TL − BL)/(CUT-OFF − BL)] × 100%, where BL is the baseline latency, and TL is the latency obtained after drug injection. The results of the experiments were statistically evaluated using one-way analysis of variance (ANOVA). The differences between the treatment groups throughout the study were further analyzed with Bonferroni post hoc tests. The Litchefield and Wilcoxon method was used to calculate the ED50 value (a dose necessary to produce a 50% response) with 95% confidence limits on quantal data.

naive mice (acute pain) = assay: Tail-flick test in naive mice (acute pain model); assay type: in vivo; conditions: for ED50 (CL) Naive Mice (Acute Pain) Tail-Flick: i.t. administration, 95% confidence limits; for analgesic effect in naive mice (acute pain), in words / ED50 Naive Mice (Acute Pain) Tail-Flick, class symbol: i.t.
Method: as §3
The tail-flick test was performed with use of Tail-Flick Analgesic Meter (Ugo Basile, Comerio, Italy) to evaluate the pain threshold to a thermal stimulus. During the procedure, an animal was placed on the apparatus surface and gently held by the experimenter. A beam of light was focused on a dorsal tail surface, approximately at 1 cm from the tail tip. When the animal flicked its tail, the timer stopped, and the recorded time (latency) was measured. The cut-off time to protect tissue damage was 9 s.
as §5

[5] = system: mice subjected to CCI (neuropathic pain); assay: Von Frey test in CCI-exposed mice (neuropathic pain, allodynia); assay type: in vivo; conditions: for ED50 (CL) Mice Subjected to CCI (Neuropathic Pain) Von Frey (Allodynia): 7–14 days after CCI, i.t. administration, 95% confidence limits
Method: as §3, §4
Mechanical sensitivity to non-noxious stimuli was measured by applying a set of calibrated nylon monofilaments in increasing value (0.6–6 g; Stoelting, Wood Dale, IL, USA) on a tested hind paw plantar surface, until a behavioral response was observed. Response considered as pain behavior included rapid paw withdrawal, shaking, and licking. In the von Frey test, results are expressed as pressure (g) applied with a calibrated plastic filament to the midplantar surface of the mouse’s injured hind paw (cut-off: 6 g), which elicited a foot withdrawal response.
as §5

T2 sequence (P33535 whole entry): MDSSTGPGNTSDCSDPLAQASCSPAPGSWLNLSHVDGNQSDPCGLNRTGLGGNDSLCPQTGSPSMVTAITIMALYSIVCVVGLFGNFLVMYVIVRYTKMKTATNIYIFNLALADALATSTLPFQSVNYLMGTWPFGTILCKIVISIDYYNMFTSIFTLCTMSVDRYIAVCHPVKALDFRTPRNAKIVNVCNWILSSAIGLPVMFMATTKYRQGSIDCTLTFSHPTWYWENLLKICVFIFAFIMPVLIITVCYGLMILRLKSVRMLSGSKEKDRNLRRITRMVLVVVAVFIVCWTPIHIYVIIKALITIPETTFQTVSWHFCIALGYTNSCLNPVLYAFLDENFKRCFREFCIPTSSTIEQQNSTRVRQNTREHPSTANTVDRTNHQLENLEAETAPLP
Chain of melanocortin-4 receptor (MC4R) (P32245 whole entry): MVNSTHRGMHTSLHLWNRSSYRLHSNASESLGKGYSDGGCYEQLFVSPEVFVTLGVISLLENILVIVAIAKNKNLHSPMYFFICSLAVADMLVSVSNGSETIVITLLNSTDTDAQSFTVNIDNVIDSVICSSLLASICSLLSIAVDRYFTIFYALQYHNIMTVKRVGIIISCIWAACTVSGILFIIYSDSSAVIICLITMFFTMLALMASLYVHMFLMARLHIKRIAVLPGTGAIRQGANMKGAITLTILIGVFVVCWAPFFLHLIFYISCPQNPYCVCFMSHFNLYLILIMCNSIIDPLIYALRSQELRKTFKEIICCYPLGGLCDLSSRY
T1 sequence (P33533 whole entry): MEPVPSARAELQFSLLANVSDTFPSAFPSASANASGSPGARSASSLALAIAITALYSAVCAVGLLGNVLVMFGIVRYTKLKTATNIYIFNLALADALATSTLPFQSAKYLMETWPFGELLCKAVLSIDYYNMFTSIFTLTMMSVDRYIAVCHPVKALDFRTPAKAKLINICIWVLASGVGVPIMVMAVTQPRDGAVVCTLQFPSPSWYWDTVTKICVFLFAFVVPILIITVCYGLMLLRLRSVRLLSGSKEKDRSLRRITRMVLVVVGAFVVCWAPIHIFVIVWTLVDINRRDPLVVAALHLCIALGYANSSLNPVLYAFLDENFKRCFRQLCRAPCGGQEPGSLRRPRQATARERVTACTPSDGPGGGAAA

Molecule	IC50 [1]	logP ([2]; read-out: Lipophilicity Log P)	logP ([2]; read-out: Lipophilicity P)	IC50 (mu opioid receptor (MOR))	Selectivity MOR/DOR (mu opioid receptor (MOR))	IC50 [3]	Selectivity MC4R/DOR [3]	ED50 (CL) Mice Subjected to CCI (Neuropathic Pain) Cold Plate (Hyperalgesia) [4]	ED50 (CL) Naive Mice (Acute Pain) Tail-Flick (naive mice (acute pain))	ED50 (CL) Mice Subjected to CCI (Neuropathic Pain) Von Frey (Allodynia) [5]	analgesic effect in naive mice (acute pain), in words (naive mice (acute pain))	analgesic effect in CCI-exposed mice, in words ([5]; CCI mice, von Frey and cold plate tests, i.t.)	ED50 Naive Mice (Acute Pain) Tail-Flick, class symbol (naive mice (acute pain))
CCCC[C@H](NC(=O)[C@@H](C)NC(=O)[C@H](Cc1ccccc1)NC(=O)CNC(=O)[C@@H](C)NC(=O)[C@@H](N)Cc1ccc(O)cc1)C(=O)N[C@H]1CC(=O)NCCCC[C@@H](C(N)=O)NC(=O)[C@H](Cc2c[nH]c3ccccc23)NC(=O)[C@H](CCCNC(=N)N)NC(=O)[C@@H](Cc2ccc3ccccc3c2)NC(=O)[C@H](Cc2c[nH]cn2)NC1=O [Compound 1, ENK-D-Ala-SHU] (H-Y[dA]GF[dA][Nle]DH[d2Nal]RWK-NH2; lactam 7-12)	14.5 ± 1.91 nM	-2.3 ± 0.02	-2.3	69.6 ± 18.7 nM	0.2	0.07 ± 0.01 nM	207	–	–	–	–	–	–
CCCC[C@H](NC(=O)CCNC(=O)[C@H](Cc1ccccc1)NC(=O)CNC(=O)[C@@H](C)NC(=O)[C@@H](N)Cc1ccc(O)cc1)C(=O)N[C@H]1CC(=O)NCCCC[C@@H](C(N)=O)NC(=O)[C@H](Cc2c[nH]c3ccccc23)NC(=O)[C@H](CCCNC(=N)N)NC(=O)[C@@H](Cc2ccc3ccccc3c2)NC(=O)[C@H](Cc2c[nH]cn2)NC1=O [Compound 2, ENK-β-Ala-SHU] (H-Y[dA]GF[βAla][Nle]DH[d2Nal]RWK-NH2; lactam 7-12)	22.8 ± 7.49 nM	-2.33 ± 0.02	-2.33	104 ± 29.1 nM	0.2	0.12 ± 0.01 nM	190	142 (31–654) nmol	58.8 (27–128) nmol	0.04 (0.03–0.68) nmol	–	–	–
CCCC[C@H](NC(=O)CCCCCNC(=O)[C@H](Cc1ccccc1)NC(=O)CNC(=O)[C@@H](C)NC(=O)[C@@H](N)Cc1ccc(O)cc1)C(=O)N[C@H]1CC(=O)NCCCC[C@@H](C(N)=O)NC(=O)[C@H](Cc2c[nH]c3ccccc23)NC(=O)[C@H](CCCNC(=N)N)NC(=O)[C@@H](Cc2ccc3ccccc3c2)NC(=O)[C@H](Cc2c[nH]cn2)NC1=O [Compound 3, ENK-Ahx-SHU] (H-Y[dA]GF[Ahx][Nle]DH[d2Nal]RWK-NH2; lactam 7-12)	45.4 ± 32.3 nM	-2.43 ± 0.01	-2.43	64 ± 34.6 nM	0.7	1.83 ± 0.81 nM	25	–	–	0.0002 (0.00005–0.001) nmol	–	–	–
CCCC[C@H](NC(=O)CCCCCNC(=O)CCCCCNC(=O)[C@H](Cc1ccccc1)NC(=O)CNC(=O)[C@@H](C)NC(=O)[C@@H](N)Cc1ccc(O)cc1)C(=O)N[C@H]1CC(=O)NCCCC[C@@H](C(N)=O)NC(=O)[C@H](Cc2c[nH]c3ccccc23)NC(=O)[C@H](CCCNC(=N)N)NC(=O)[C@@H](Cc2ccc3ccccc3c2)NC(=O)[C@H](Cc2c[nH]cn2)NC1=O [Compound 4, ENK-(Ahx)2-SHU] (H-Y[dA]GF[Ahx][Ahx][Nle]DH[d2Nal]RWK-NH2; lactam 8-13)	22.3 ± 12.7 nM	-2.92 ± 0.02	-2.92	5.47 ± 1.38 nM	4.1	0.5 ± 0.16 nM	45	0.1 (0.004–3.4) nmol	–	0.01 (0.00002–7.8) nmol	–	–	–
ENK-4AMB-SHU [Compound 5]	–	–	–	–	–	–	–	0.16 (0.1–0.2) nmol	–	0.02 (0.005–0.5) nmol	lack of analgesic effect	–	–
ENK-4APhAc-SHU [Compound 6]	–	–	–	–	–	–	–	0.02 (0.0005–1.2) nmol	42 (21–85) nmol	0.02 (0.0002–1.03) nmol	some analgesic activity	–	–
ENK-(Pro-Gly)2-SHU [Compound 8]	–	–	–	–	–	–	–	–	5 (0.4–60.3) nmol	–	–	any analgesic effect was not observed; also recorded: very little if any activity	–
ENK-Pro-Gly-SHU [Compound 7]	–	–	–	–	–	–	–	0.16 (0.07–0.34) nmol	–	0.4 (0.3–0.6) nmol	impossible to calculate ED50 due to weak analgesic effect and poor dose dependency	–	# (weak analgesic effects, poor dose dependency, ED50 cannot be calculated)
[Dmt^1]ENK-Ahx-SHU [Compound 9]	–	–	–	–	–	–	–	0.009 (0.005–0.01) nmol	–	0.003 (0.000003–3.45) nmol	impossible to calculate ED50 due to weak analgesic effect and poor dose dependency	–	# (weak analgesic effects, poor dose dependency, ED50 cannot be calculated)
